# Values joined by “and” are separate entries in the source; they are usually repeats but may differ in a detail not shown here. Equal values may be shown once. Where a name gives a salt, the structure may show the parent alone. Read-outs that look alike come from different tables or passages of the source.
# Columns and labels:
# cough pulses [1] = test: Oral citric acid aerosol cough test in guinea pigs, time course 1-24 h, Comparative test 6; type: in vivo; conditions: for Cough pulses during 8 minutes, percent of control value, after 1 h / Cough pulses during 8 minutes, percent of control value, after 3 h / Cough pulses during 8 minutes, percent of control value, after 5 h / Cough pulses during 8 minutes, percent of control value, after 24 h: codeine phosphate 75, d,l-glaucine hydrobromide 150, hydrochloride 135, embonate 378 mg/kg
# Experimental: In a further comparative test, 40 female guinea pigs with body weights between 230 and 500 g were divided into 4 groups and each animal was again subjected to the action of a 20% citric acid aerosol for 8 minutes. From the control values thus obtained the average control value for each group was calculated. Each animal of each group was then given, by means of a throat probe, either 75 mg/kg of codeine phosphate, or 135 mg/kg of d,l-glaucine hydrochloride, or 150 mg/kg of d,1-glaucine hydrobromide, or 378 mg/kg of d,l-glaucine embonate. These doses are the equimolar quantities, based on glaucine. After a period of 1, or 3, or 5, or 24 hours each animal was again subjected for 8 minutes to the action of the citric acid aerosol, and the number of cough pulses during this period was recorded. The values thus obtained were compared with the control values and the percent deviation of the average measured value for each group, from the average control value, was calculated.
# [2] = test system: isolated guinea pig intestines (contractions induced by electric voltages); test: Suppression of electrically induced contractions in isolated guinea pig intestines, Comparative test 4; parameters: electrically induced contractions (Table III): unit not given here
# Experimental: In a further series of tests the effects of different doses of codeine phosphate in suppressing contractions induced in isolated guinea pig intestines by electric voltages were tested. For this purpose one electrode was immersed in the solution surrounding the intestinal preparation. The second electrode was connected to the preparation at the attachment point.
# coughing centre = test: Coughing reflex by electrical stimulation of upper laryngeal nerves of anaesthetized cats (method of Domenjoz), Comparative test 5; type: in vivo; conditions: intravenous; for minimal effective dose: Felis catus, read-out: MED (minimal effective dose completely suppressing the coughing reflex); for minimal effective dose / Duration of cough suppression: anaesthetized cats; for Duration of cough suppression: at MED
# Experimental: In a series of tests conducted by the method of Domenjoz, the effects of the different active substances on the coughing centre was examined by electrical stimulation of the upper laryngeal nerves of anaesthetized cats. Electrical stimulation of the nerve produces a coughing reflex and the intention is to reduce this by intravenous injection of the active substance. The minimal effective dose MED is determined by increasing the dose from 0.1 mg/kg of body weight up to 0.3 mg/kg, 1.0 mg/kg, 3.0 mg/kg and 6.0 mg/kg, until the dose is sufficient for completely suppressing the coughing reflex.
# In these tests each animal was given, on the one hand, codeine and, on the other hand, at sufficient time intervals also glaucine, so that the ratio of the minimal effective doses of glaucine and codeine can be deduced.
# cough pulses [3] = test: Citric acid aerosol cough test in guinea pigs, subcutaneous, 30 min (method of Friebel and Reichle), Comparative test 1; type: in vivo; conditions: s.c.; for ED50: Cavia porcellus, sc, 0.5 h, 30 min after administering, 20% citric acid aerosol, 8 min
# Experimental: In order to compare the anti-cough effectiveness of codeine phosphate with the effectiveness of the different isomers of glaucine hydrobromide, the testing method of Friebel and Reichle was used. 60 guinea pigs with weights between 200 and 300 g were divided up into ten groups of different sizes. Before administering the active substance, each animal was subjected, on the same day as the day of test with the active substance, for a period of 8 minutes to an aerosol of 20% citric acid, the animal being confined in a chamber at constant air pressure. During this control test the number of cough pulses was counted with the help of a pressure transmitter. From these measurements an average control value for each group was calculated. After this preliminary control test, there was given subcutaneously to each animal of each group a suspension of the active substance in 1% sodium carboxymethyl cellulose. After 30 minutes each animal was again exposed in the test chamber for 8 minutes to the aerosol of 20% citric acid and the number of cough pressure pulses recorded. The different active substances were administered in increasing doses ranging from 3 mg/kg to 100 mg/kg of body weight. Altogether eight different doses were given. The results were expressed as percent deviation from the average control value for the group on the same day, the deviation being entered in a diagram against the logarithm of the dose administered. From the resulting effectiveness curve, based on the logarithm of the dose, the coefficient of correlation and the ED50 were calculated for each active substance, by the regression analysis method of Downie and Heath (1965). The values obtained for codeine phosphate, for d-glaucine hydrobromide, for d,l-glaucine hydrobromide and for l-glaucine hydrobromide thirty minutes after administering the active substance are summarized in Table I.
# [4] = test system: isolated guinea pig intestines (contractions induced by electric voltages); test: Suppression of electrically induced contractions in isolated guinea pig intestines, Comparative test 4; conditions: isolated guinea pig intestine; codeine: increased doses; d-glaucine: higher concentrations than 4×10^-5; d,l-glaucine: 4×10^-5 to 6×10^-5
# mice = test: Toxicity (LD50) in mice by the Wilcox method, Comparative test 7; type: in vivo; conditions: hydrobromide
# Experimental: (§1) The toxicity thresholds of codeine phosphate, of d-glaucine hydrobromide and of d,l-glaucine hydrobromide were determined in mice by the Wilcox method. […] The toxicities of codeine phosphate and d,l-glaucine hydrobromide are about equal.
# [5] = as above; type: in vivo; conditions: mouse, in vivo
# Experimental: as §1
# cough pulses [6] = test: Oral citric acid aerosol cough test in guinea pigs, 1 h (equivalent effective doses), Comparative test 6; type: in vivo; conditions: for Cough pulses percent of control value: 20% citric acid aerosol 8 min
# [7] = test system: smooth muscles of isolated guinea pigs intestine; test: Effect on smooth muscles of isolated guinea pig intestine in a bath, Comparative test 3; conditions: for spontaneous activity and tone, in words: molar concentrations between 1×10^-5 and 8×10^-5
# Experimental: Experiments were conducted in vitro to determine the effects of different active substances on the smooth muscles of isolated guinea pigs intestine samples suspended in a bath. After adding to the bath different doses of the active substances, the contractive force of the muscle material was recorded.
# intestinal motility = test: Intestinal motility / evacuation action of stomach-intestinal tract of mice (carbon suspension), Comparative test 2; type: in vivo; conditions: s.c., 2 h, control 74.3%, * = significantly different from control (p < 0.05)
# Description: One of the most unpleasant side effects of anti-cough medicine containing codeine is constipation and the occurrence of intestinal spasms. A model test for determining the effects of anti-cough active substances on intestinal motility and on the evacuation action of the stomach-intestinaltract of mice was therefore made. After subcutaneous injection of the active substance, each animal was given, through a throat probe, a 10% suspension of carbon in a 5% aqueous slurry of gum arabic. Two hours later the intestine was sectioned and the distance of stomach coecum measured, and also the distance travelled by the carbon, which was expressed as percent of intestine length.
# The effects of codeine phosphate, of d-glaucine hydrobromide and of l-glaucine hydrobromide on intestinal motility were determined at different doses. For each dose the average value was calculated for a sufficient number of animals.
# [8] = po, peroral, read-out: LD50 peroral
# [9] = sc, subcutaneous, read-out: LD50 subcutaneous
compound,measurement,setting,value
"COc1cc2c(cc1OC)-c1c(OC)c(OC)cc3c1C(C2)N(C)CC3 (racemic) [d,l-glaucine embonate]","Cough pulses during 8 minutes, percent of control value, after 1 h",cough pulses [1],80%
same,"Cough pulses during 8 minutes, percent of control value, after 3 h",cough pulses [1],51%
same,"Cough pulses during 8 minutes, percent of control value, after 5 h",cough pulses [1],57%
same,"Cough pulses during 8 minutes, percent of control value, after 24 h",cough pulses [1],81%
same,"duration of effect, in words","cough pulses [1]; guinea pigs, 378 mg/kg",considerably longer-lasting effect without any delay in the beginning of the effect
"COc1cc2c(cc1OC)-c1c(OC)c(OC)cc3c1C(C2)N(C)CC3 (racemic) [d,l-glaucine hydrobromide]","suppression of electrically induced spasms, in words",[2]; 4×10^-5 to 6×10^-5,suppress the electrically induced spasms practically completely
same,electrically induced contractions (Table III),[2]; molar concentration 1 × 10^-5,63
same,electrically induced contractions (Table III),[2]; molar concentration 2 × 10^-5,48
same,electrically induced contractions (Table III),[2]; molar concentration 4 × 10^-5,8
same,electrically induced contractions (Table III),[2]; molar concentration 4 × 10^-6,81
same,electrically induced contractions (Table III),[2]; molar concentration 8 × 10^-6,63
same,minimal effective dose,coughing centre,1 mg/kg
same,Duration of cough suppression,coughing centre,44 to 62 min
same,"duration of the effect, in words",coughing centre; at minimal dose,"considerably greater for the d,l-glaucine hydrobromide than for the d-glaucine hydrobromide"
same,ED50,cough pulses [3],27.2 mg/kg
same,"ED50 value, comparison in words",cough pulses [3]; 30 min,even lower ED50 value than l-glaucine hydrobromide
same,"Cough pulses during 8 minutes, percent of control value, after 1 h",cough pulses [1]; hydrobromide,90%
same,"Cough pulses during 8 minutes, percent of control value, after 3 h",cough pulses [1]; hydrobromide,47%
same,"Cough pulses during 8 minutes, percent of control value, after 5 h",cough pulses [1]; hydrobromide,59%
same,"Cough pulses during 8 minutes, percent of control value, after 24 h",cough pulses [1]; hydrobromide,113%
same,"induced spontaneous activity, in words",[4],without at the same time inducing any spontaneous activity
same,"toxicity, comparison in words",mice,about equal
same,LD50,[5]; [8],686 mg/kg
same,LD50,[5]; [9],320 mg/kg
same,Cough pulses percent of control value,cough pulses [6]; 100 mg/kg,30%
same,Cough pulses percent of control value,cough pulses [6]; 200 mg/kg,44%
same,"dose having about the same effect (codeine phosphate vs d,l-glaucine hydrobromide)",cough pulses [6]; guinea pigs,~150 mg per kg of body weight
"COc1cc2c(cc1OC)-c1c(OC)c(OC)cc3c1C(C2)N(C)CC3 (racemic) [d,l-glaucine hydrochloride]","Cough pulses during 8 minutes, percent of control value, after 1 h",cough pulses [1]; hydrochloride,80%
same,"Cough pulses during 8 minutes, percent of control value, after 3 h",cough pulses [1]; hydrochloride,72%
same,"Cough pulses during 8 minutes, percent of control value, after 5 h",cough pulses [1]; hydrochloride,69%
same,"Cough pulses during 8 minutes, percent of control value, after 24 h",cough pulses [1]; hydrochloride,102%
"COc1ccc2c3c1O[C@H]1[C@@H](O)C=C[C@H]4[C@@H](C2)N(C)CC[C@@]341 [codeine, reference compound]","contractive force of the muscle material, in words",[7]; molar concentrations between 1×10^-5 and 32×10^-5,produces contractions which depend on the dose
"COc1cc2c(cc1OC)-c1c(OC)c(OC)cc3c1[C@H](C2)N(C)CC3 [d-glaucine hydrobromide, reference compound]","suppression of electrically induced contraction reflexes, in words",[2]; 4×10^-5,suppresses electrically induced contraction reflexes
same,electrically induced contractions (Table III),"[2]; molar concentration 1 × 10^-5, hydrobromide",77 and 95
same,electrically induced contractions (Table III),"[2]; molar concentration 2 × 10^-5, hydrobromide",74 and 79
same,electrically induced contractions (Table III),"[2]; molar concentration 4 × 10^-5, hydrobromide",44 and 36
same,minimal effective dose,coughing centre,1 mg/kg
same,Duration of cough suppression,coughing centre,5 to 39 min
same,Distance travelled average % (of intestine length),intestinal motility; 10 mg/kg,74.6%
same,Distance travelled average % (of intestine length),intestinal motility; 30 mg/kg,80.1%
same,Distance travelled average % (of intestine length),intestinal motility; 100 mg/kg,36.4%
same,ED50,cough pulses [3],54 mg/kg
same,"induced spontaneous activity, in words",[4],the increasing spontaneous activity prevents any distinguishing between direct production and electric production of the activity
same,LD50,[5]; [8],345 mg/kg
same,LD50,[5]; [9],125 mg/kg
"COc1cc2c(cc1OC)-c1c(OC)c(OC)cc3c1[C@H](C2)N(C)CC3 [d-glaucine, reference compound]","spontaneous activity and tone, in words",[7],dose-dependent increase of spontaneous activity and tone
COc1cc2c(cc1OC)-c1c(OC)c(OC)cc3c1[C@@H](C2)N(C)CC3 [l-glaucine],spasmogenic activity,"[7]; in vitro, isolated guinea pig intestine",no spasmogenic activity
same,"spontaneous activity and tone, in words",[7],a reduction in spontaneous activity and no increase in tone

# Reference: US4370331A, “L-Glaucine containing composition for cough relief” (Karl O. Helm Aktiengesellschaft, priority 1977, dated 1983)
